Series [1] addresses T1, 5-hydroxytryptamine receptor 1A (Homo sapiens, UniProt P08908).
T1 sequence (P08908 whole entry): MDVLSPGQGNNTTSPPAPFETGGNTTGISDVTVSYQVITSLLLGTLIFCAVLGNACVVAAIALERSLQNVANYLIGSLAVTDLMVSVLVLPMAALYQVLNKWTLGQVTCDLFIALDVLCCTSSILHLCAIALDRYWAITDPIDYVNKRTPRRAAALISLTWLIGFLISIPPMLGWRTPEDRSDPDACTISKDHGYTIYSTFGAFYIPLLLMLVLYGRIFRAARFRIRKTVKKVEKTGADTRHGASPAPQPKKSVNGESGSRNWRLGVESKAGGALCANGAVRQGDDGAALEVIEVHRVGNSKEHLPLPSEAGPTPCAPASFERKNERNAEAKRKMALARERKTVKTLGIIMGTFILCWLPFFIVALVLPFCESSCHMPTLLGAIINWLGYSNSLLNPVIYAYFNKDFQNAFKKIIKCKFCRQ
In words: Displacement of [3H]-8-OH-DPAT from human 5-HT1A receptor extracted from HEK293 cell membrane by microbeta plate reader analysis. In kind it is cell membranes. On the technique in general: Displacement assays read how much labelled ligand stays bound in the presence of the test substance.

The nature of series [2]: in vitro. To be noted: rat, microsomes.
The target of series [3] is 5-hydroxytryptamine receptor 6 (Homo sapiens, UniProt P50406).
Description: Displacement of [3H]-LSD from human 5-HT6 receptor extracted from HEK293 cell membrane by microbeta plate reader analysis
The nature of series [4]: in vitro. The following applies: rat, microsomes. The source holds these as a separate data set.
Series [5] addresses 5-hydroxytryptamine receptor 7 (Homo sapiens, UniProt P34969). In words: Displacement of [3H]-5-CT from human 5-HT7 receptor extracted from HEK293 cell membrane by microbeta plate reader analysis. Format: cell membranes.
For another series, the target named is D(2) dopamine receptor (Homo sapiens, UniProt P14416). Put plainly: Displacement of [3H]-raclopride from human D2L receptor extracted from HEK293 cell membrane by microbeta plate reader analysis. Format: cell membranes.
A short description of series [6]: Drug metabolism in rat liver microsomes assessed as hydroxylation mediated metabolite formation by UPLC-MS analysis. In kind it is ADME, Microsome.
Series [7] addresses 5-hydroxytryptamine receptor 2A (Homo sapiens, UniProt P28223). Put plainly: Displacement of [3H]-ketanserin from human 5-HT2A receptor extracted from CHO-K1 cell membrane by microbeta plate reader analysis. Format: cell membranes.
A short description of series [8]: Drug metabolism in rat liver microsomes by UPLC-MS analysis. Format: ADME, Microsome. On the technique in general: Liver microsomes are vesicles of endoplasmic reticulum, rich in cytochrome P450 enzymes.
Series [9] is described as follows: Cytotoxicity against human SH-SY5Y cells incubated for 3 hrs by MTT assay. In kind it is toxicity, cell-based. (Formazan colour is commonly taken as a measure of viable cells.)
Series [10] addresses hERG (KCNH2) potassium channel (Homo sapiens, UniProt Q12809). Put plainly: Inhibition of hERG potassium channel at 1 uM relative to control. Format: toxicity.
In a further series the target is CYP3A4 (Homo sapiens, UniProt P08684). Put plainly: Inhibition of CYP3A4 (unknown origin) at 10 uM relative to control. Format: ADME.
A short description of series [11]: Cytotoxicity against mouse C8D1A cells incubated for 3 hrs by MTT assay. In kind it is toxicity, cell-based, C8-D1A.
Series [12] can be described thus: Cytotoxicity against rat PC12 cells incubated for 3 hrs by MTT assay. In kind it is toxicity, cell-based, PC-12.
Series [13] can be described thus: Cytotoxicity against human astrocytes incubated for 3 hrs by MTT assay. In kind it is toxicity, cell-based, Astrocyte.

5-hydroxytryptamine receptor 7, sequence (P34969 whole entry): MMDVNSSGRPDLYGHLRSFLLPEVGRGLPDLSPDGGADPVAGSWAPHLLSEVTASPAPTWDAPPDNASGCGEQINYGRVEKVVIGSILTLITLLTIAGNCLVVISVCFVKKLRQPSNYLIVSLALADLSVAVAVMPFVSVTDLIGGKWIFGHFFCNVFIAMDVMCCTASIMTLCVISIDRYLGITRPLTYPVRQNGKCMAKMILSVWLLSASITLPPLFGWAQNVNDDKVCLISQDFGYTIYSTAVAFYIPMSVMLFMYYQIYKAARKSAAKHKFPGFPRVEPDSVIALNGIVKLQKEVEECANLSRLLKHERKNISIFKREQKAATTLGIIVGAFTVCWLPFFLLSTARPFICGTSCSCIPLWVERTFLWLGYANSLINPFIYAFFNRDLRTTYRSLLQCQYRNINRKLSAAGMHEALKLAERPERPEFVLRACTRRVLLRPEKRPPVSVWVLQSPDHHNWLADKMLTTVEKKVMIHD
5-hydroxytryptamine receptor 2A, sequence (P28223 whole entry): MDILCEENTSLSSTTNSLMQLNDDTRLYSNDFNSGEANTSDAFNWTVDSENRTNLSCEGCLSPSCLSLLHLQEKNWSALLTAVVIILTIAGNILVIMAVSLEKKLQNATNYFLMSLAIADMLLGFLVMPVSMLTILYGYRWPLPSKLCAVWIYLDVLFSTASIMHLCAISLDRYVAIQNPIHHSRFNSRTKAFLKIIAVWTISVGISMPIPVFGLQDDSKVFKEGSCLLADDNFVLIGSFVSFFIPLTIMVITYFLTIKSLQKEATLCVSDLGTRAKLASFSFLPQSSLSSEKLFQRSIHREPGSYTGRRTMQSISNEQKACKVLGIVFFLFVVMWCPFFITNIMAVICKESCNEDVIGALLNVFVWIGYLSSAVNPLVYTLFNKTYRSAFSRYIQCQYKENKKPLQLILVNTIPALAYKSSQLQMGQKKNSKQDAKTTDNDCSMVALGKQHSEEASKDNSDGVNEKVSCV
D(2) dopamine receptor, sequence (P14416 whole entry): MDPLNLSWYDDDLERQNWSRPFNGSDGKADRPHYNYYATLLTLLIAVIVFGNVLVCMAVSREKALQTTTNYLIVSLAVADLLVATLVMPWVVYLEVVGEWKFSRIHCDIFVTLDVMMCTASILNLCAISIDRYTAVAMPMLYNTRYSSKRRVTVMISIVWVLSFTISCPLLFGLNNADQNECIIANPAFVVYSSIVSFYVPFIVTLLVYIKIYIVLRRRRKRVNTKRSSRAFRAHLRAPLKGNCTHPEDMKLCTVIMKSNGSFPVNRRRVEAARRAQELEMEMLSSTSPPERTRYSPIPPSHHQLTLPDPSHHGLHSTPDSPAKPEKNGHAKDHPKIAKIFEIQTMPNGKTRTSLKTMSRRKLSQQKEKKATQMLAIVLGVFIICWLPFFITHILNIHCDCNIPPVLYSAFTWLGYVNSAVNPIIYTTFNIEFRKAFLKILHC
5-hydroxytryptamine receptor 6, sequence (P50406 whole entry): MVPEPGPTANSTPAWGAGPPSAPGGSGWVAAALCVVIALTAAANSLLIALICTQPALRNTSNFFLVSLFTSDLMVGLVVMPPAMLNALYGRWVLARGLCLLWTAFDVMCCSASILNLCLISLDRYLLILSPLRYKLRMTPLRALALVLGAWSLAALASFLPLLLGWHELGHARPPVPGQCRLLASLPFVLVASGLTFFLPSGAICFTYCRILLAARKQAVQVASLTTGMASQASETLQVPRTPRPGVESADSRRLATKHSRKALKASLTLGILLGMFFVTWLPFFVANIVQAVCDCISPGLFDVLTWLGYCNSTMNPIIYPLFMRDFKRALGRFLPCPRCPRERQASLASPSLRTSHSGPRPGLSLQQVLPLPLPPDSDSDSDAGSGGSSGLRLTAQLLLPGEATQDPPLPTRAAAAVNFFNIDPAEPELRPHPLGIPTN
hERG (KCNH2) potassium channel, sequence (Q12809 whole entry): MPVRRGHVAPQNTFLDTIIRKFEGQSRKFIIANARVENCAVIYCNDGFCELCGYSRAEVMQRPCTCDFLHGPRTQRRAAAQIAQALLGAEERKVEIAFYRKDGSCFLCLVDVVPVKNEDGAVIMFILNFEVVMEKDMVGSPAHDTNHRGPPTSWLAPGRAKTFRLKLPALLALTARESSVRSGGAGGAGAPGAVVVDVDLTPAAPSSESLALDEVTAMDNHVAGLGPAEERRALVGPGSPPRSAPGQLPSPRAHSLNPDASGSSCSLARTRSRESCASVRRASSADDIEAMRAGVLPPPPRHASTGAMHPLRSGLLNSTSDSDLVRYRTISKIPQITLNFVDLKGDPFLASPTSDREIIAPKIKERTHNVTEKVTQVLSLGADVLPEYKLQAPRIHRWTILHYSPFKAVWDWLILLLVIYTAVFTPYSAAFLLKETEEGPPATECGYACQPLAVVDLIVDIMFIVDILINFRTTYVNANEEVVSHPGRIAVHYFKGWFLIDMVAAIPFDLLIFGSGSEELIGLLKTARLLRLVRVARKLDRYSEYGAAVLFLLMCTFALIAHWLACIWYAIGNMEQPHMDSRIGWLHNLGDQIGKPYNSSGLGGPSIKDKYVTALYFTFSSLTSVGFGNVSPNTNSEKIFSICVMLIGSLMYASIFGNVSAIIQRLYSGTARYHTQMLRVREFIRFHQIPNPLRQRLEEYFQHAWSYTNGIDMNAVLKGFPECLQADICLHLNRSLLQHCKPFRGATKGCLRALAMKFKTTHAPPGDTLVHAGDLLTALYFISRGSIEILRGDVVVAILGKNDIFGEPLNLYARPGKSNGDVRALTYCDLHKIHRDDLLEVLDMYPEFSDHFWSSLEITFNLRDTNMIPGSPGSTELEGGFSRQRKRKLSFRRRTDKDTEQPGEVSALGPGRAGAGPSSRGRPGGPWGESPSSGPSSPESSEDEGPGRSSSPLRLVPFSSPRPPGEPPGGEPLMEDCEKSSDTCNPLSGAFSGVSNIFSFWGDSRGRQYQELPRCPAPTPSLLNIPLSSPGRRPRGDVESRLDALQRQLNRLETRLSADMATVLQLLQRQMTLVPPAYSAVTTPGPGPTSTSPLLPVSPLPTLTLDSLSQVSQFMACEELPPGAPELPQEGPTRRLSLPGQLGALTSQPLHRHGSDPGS
CYP3A4, sequence (P08684 whole entry): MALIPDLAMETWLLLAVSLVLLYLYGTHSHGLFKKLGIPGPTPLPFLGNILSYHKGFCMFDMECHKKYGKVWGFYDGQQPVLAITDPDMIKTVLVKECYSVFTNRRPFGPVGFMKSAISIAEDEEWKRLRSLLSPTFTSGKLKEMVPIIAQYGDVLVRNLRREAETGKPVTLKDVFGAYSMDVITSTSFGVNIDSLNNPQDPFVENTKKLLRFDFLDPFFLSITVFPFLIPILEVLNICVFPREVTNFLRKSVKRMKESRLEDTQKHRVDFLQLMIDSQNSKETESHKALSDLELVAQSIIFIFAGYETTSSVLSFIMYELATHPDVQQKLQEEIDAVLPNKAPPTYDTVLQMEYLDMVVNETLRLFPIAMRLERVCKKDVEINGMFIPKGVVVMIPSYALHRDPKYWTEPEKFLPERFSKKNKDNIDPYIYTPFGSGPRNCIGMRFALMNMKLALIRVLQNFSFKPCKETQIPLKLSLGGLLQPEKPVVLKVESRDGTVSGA

On to `O=S(=O)(c1cccc(NC2CCNCC2)c1)n1cccc1-c1ccccc1`, for which the Ki (as a rule, a dissociation constant, usually derived from enzyme kinetics or from competition with a known ligand) amounted to 40600 nM in [1]; 4 nM in [3]; 1990 nM in series [5]; 10800 nM at D(2) dopamine receptor; 1540 nM in series [7]. Besides, the microsomal CLint (commonly a measure of how fast metabolising enzymes remove a compound, apart from limits set by blood flow) at 1 h, 10 µM in the series “in vitro [2]” came out at 20.6 µL/min/mg. In addition, the half-life (commonly the time in which the quantity being followed falls by half) at 1 h, 10 µM in “in vitro [4]” came to 101 min. For the same compound, the Drug metabolism entry in [6] is “Metabolite_Detected”.

Take `O=C(NC1CCNCC1)c1ccn(S(=O)(=O)c2cccc(Cl)c2)c1-c1cccc(F)c1`: the Ki in series [1] was determined as 68600 nM; in [5], 84000 nM; at D(2) dopamine receptor, 7690 nM; in [7], 10600 nM.

For `COc1cccc(-c2cccn2S(=O)(=O)c2cccc(N3CCNCC3)c2)c1`, the Ki in [1] is 916 nM; in series [3] it was 1 nM; in series [5], 11600 nM; at D(2) dopamine receptor, 5200 nM; in series [7], 655 nM. In the series “in vitro [2]”, this compound had an intrinsic metabolic clearance (microsomal CLint) at 1 h, 10 µM of 56.7 µL/min/mg. For the same compound, in [8], the Drug metabolism result was “Metabolite_Notdetected”. The half-life at 1 h, 10 µM in the series “in vitro [4]” was 36.7 min.

`O=S(=O)(c1cccc(N2CCNCC2)c1)n1cccc1-c1ccccc1`: the Ki in series [1] was determined as 755 nM; in series [3], 1 nM; in series [5], 12300 nM; at D(2) dopamine receptor it was 2170 nM; in series [7] it was 412 nM. In the series “in vitro [2]”, this compound had a microsomal CLint at 1 h, 10 µM of 24.9 µL/min/mg. This compound registered a half-life at 1 h, 10 µM in “in vitro [4]” of 83.6 min. Further, the Drug metabolism entry in [6] was “Metabolite_Detected”.

For the compound `O=S(=O)(c1cccc(N2CCNCC2)c1)n1cccc1-c1cccc(F)c1`, the IC50 (as a rule, the concentration at which inhibition is half-maximal) at 3 h was 18500 nM in series [9], 37400 nM in [11], 25600 nM in series [12] and 39300 nM in series [13]. Moreover, the Ki was determined as 1840 nM in series [1]; 1 nM in series [3]; 11500 nM in series [5]; 4330 nM at D(2) dopamine receptor; 2510 nM in series [7]. The inhibition (usually the percentage by which the read-out fell short of the control) at 1 µM in series [10] was determined as 8%. Also, the inhibition at 10 µM on CYP3A4 is 94%. The microsomal CLint at 1 h, 10 µM in “in vitro [2]” came out at 32.4 µL/min/mg. Also, the Drug metabolism entry in series [8] is recorded as “Metabolite_Notdetected”. In “in vitro [4]”, this compound returned a half-life at 1 h, 10 µM of 49.3 min.

As to `O=S(=O)(c1ccccc1)n1cccc1-c1cccc(N2CCNCC2)c1`, the Ki in series [1] was 2470 nM; in series [3], 27 nM; in series [5] it was 1320 nM; at D(2) dopamine receptor, 2700 nM; in [7] it was 15900 nM. In addition, the microsomal CLint at 1 h, 10 µM in the series “in vitro [2]” stood at 109 µL/min/mg. Also, the half-life at 1 h, 10 µM in “in vitro [4]” was determined as 15.3 min. In addition, in [6], the Drug metabolism result is recorded as “Metabolite_Detected”.
